Results on two molecules are retold here after ChEMBL document CHEMBL4334438, “Discovery of novel glycogen synthase kinase-3α inhibitors: Structure-based virtual screening, preliminary SAR and biological evaluation for treatment of acute myeloid leukemia” (Eur J Med Chem, 2019).

Experiment [1] deals with Bone morphogenetic protein receptor type-2 (Homo sapiens) (UniProt Q13873). Put plainly: Inhibition of recombinant human BMPR2 (172 to 734 residues) assessed as residual activity at 1 uM using myelin basic protein as substrate incubated for 120 mins in presence of [gamma-33ATP] by scintillation counting based radiometry assay relative to control.
Chain of Bone morphogenetic protein receptor type-2 (Homo sapiens) (Q13873 whole entry, the tested form may be a part): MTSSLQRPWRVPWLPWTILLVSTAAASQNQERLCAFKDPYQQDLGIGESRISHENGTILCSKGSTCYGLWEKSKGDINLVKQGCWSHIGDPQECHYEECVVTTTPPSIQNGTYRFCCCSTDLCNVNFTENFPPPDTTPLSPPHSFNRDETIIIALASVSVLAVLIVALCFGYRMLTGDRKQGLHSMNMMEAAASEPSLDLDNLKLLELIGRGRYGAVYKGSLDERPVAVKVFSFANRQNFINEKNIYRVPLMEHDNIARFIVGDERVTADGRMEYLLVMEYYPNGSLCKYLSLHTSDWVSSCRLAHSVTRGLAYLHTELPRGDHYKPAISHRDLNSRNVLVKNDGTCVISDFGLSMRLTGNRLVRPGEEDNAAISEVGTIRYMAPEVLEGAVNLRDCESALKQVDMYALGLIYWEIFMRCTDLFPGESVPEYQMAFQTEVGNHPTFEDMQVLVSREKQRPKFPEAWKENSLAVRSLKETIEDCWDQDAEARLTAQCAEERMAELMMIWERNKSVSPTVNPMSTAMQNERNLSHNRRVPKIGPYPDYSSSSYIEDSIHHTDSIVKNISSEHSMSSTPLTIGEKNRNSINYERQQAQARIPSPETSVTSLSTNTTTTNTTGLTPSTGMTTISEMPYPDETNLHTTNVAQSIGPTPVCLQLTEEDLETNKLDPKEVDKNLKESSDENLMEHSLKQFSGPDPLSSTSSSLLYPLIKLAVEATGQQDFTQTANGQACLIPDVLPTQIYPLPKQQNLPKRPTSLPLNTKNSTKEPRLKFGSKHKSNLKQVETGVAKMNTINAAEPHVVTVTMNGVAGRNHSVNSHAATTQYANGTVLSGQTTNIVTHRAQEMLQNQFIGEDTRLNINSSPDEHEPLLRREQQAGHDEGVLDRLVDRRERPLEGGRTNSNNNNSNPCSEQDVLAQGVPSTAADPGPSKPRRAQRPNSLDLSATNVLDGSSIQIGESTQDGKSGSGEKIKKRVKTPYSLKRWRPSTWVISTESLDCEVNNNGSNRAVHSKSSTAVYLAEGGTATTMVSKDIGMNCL
For experiment [2], the species on record is Homo sapiens. Put plainly: Inhibition of recombinant human BRSK2 S251I mutant (2 to end residues) assessed as residual activity at 1 uM using KKLNRTLSFAEPG substrate incubated for 40 mins in presence of [gamma-33ATP] by scintillation counting based radiometry assay relative to control.
The target of experiment [3] is Tyrosine-protein kinase BTK (Homo sapiens) (UniProt Q06187). In words: Inhibition of recombinant full length human BTK assessed as residual activity at 1 uM using KVEKIGEGTYGVV substrate incubated for 40 mins in presence of [gamma-33ATP] by scintillation counting based radiometry assay relative to control.
Chain of Tyrosine-protein kinase BTK (Homo sapiens) (Q06187 whole entry): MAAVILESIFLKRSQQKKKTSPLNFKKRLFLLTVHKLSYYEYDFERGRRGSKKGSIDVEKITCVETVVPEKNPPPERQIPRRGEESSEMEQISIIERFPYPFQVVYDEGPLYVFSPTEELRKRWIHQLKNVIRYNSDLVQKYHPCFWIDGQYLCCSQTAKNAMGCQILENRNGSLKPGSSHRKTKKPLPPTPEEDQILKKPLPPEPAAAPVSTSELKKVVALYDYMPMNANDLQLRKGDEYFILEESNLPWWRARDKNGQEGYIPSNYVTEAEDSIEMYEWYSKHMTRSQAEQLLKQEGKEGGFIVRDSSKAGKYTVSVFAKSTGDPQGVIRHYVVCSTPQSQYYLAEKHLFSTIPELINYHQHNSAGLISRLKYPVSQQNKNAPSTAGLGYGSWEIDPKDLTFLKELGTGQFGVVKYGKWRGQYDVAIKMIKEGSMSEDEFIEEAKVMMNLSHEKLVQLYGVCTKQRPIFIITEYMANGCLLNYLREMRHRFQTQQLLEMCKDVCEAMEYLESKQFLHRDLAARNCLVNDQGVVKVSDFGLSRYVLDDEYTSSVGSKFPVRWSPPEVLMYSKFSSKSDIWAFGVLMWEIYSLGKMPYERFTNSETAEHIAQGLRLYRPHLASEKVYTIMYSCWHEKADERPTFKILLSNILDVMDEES
The target in experiment [4] is Calcium/calmodulin-dependent protein kinase type 1 (Homo sapiens) (UniProt Q14012). In words: Inhibition of recombinant human CaMKIalpha (2 to end residues) assessed as residual activity at 1 uM […] incubated for 40 mins in presence of [gamma-33ATP] by scintillation counting based radiometry assay relative to control.
The target in experiment [5] is Cyclin-dependent kinase 2/cyclin E1 (Homo sapiens) (UniProt P24864+P24941). In words: Inhibition of recombinant full length human CDK2/CyclinE assessed as residual activity at 1 uM using Histone H1 as substrate incubated for 40 mins in presence of [gamma-33ATP] by scintillation counting based radiometry assay relative to control. In kind it is protein-complex assay.

In experiment [6] the test system is Epidermal growth factor receptor (Homo sapiens), P00533 [T790M]. In words: Inhibition of recombinant human EGFR T790M mutant (696 to end residues) assessed as residual activity at 1 uM using poly(Glu, Tyr) 4:1 as substrate at 40 mins in presence of [gamma-33ATP] by scintillation counting based radiometry assay relative to control.
Experiment [7] addresses Ephrin type-A receptor 3 (Homo sapiens) (UniProt P29320). Put plainly: Inhibition of recombinant human EphA3 (578 to end residues) assessed as residual activity at 1 uM using poly(Glu, Tyr) 4:1 as substrate at 40 mins in presence of [gamma-33ATP] by scintillation counting based radiometry assay relative to control.
For experiment [8], the target named is Receptor-type tyrosine-protein kinase FLT3 (Homo sapiens) (UniProt P36888). Put plainly: Inhibition of recombinant human FLT3 (564 to end residues) assessed as residual activity at 1 uM using EAIYAAPFAKKK as substrate at 40 mins in presence of [gamma-33ATP] by scintillation counting based radiometry assay relative to control.
Experiment [9] addresses Tyrosine-protein kinase JAK3 (Homo sapiens) (UniProt P52333). Put plainly: Inhibition of human JAK3 (781 to end residues) assessed as residual activity at 1 uM using GGEEEEYFELVKKKK as substrate after 40 mins by [gamma-33ATP] radiometric assay relative to control.
The target in experiment [10] is Maternal embryonic leucine zipper kinase (Homo sapiens) (UniProt Q14680). Put plainly: Inhibition of recombinant human MELK (1 to 340 residues) assessed as residual activity at 1 uM using KKLNRTLSFAEPG as substrate incubated for 40 mins in presence of [gamma-33ATP by scintillation counting based radiometry assay relative to control.
For experiment [11], the target named is cAMP-dependent protein kinase catalytic subunit alpha (Homo sapiens) (UniProt P17612). Put plainly: Inhibition of recombinant human PKA assessed as residual activity at 1 uM using Kemptide as substrate measured after 40 mins in presence of [gamma33P]ATP by scintillation counting method relative to control.
The subject of experiment [12] is Protein kinase C eta type (Homo sapiens), P24723 [UNDEFINED MUTATION]. Put plainly: Inhibition of recombinant human PKCeta V108L/G109R/L392Q mutant (2 to end residues) assessed as residual activity at 1 uM using ERMRPRKRQGSVRRRV as substrate incubated for 40 mins in presence of [gamma33P]ATP by scintillation counting based radiometry assay relative to control.
Experiment [13] deals with T1, cGMP-dependent protein kinase 1 (Homo sapiens) (UniProt Q13976).
T1 sequence (whole entry): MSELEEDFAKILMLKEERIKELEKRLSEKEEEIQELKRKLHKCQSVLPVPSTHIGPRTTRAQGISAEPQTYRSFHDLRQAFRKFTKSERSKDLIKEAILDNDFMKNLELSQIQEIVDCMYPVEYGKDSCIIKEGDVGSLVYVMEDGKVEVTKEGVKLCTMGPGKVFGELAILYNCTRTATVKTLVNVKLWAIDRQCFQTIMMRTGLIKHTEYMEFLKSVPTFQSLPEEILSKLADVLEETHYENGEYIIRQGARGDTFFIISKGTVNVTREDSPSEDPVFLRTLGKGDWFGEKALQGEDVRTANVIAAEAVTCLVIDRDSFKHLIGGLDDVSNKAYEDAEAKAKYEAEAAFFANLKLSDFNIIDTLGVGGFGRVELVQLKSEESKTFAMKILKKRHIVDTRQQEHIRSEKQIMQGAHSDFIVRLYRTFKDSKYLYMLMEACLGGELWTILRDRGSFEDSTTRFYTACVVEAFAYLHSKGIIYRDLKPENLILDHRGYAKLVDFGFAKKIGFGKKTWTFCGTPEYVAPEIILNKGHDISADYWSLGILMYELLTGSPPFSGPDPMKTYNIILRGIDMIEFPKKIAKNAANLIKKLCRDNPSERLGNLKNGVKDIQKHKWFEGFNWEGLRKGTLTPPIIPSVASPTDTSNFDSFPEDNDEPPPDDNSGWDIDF
Put plainly: Inhibition of recombinant full-length human PKG1beta assessed as residual activity at 1 uM using RRRLSFAEPG as substrate measured after 40 mins in presence of [gamma33P]ATP by scintillation counting method relative to control.

For experiment [14], the system named is Proto-oncogene tyrosine-protein kinase Src (Homo sapiens), P12931 [T341M]. In words: Inhibition of recombinant full-length human Src T341M mutant at 1 uM assessed as residual activity at 1 uM using GGEEEEYFELVKKKK as substrate measured after 40 mins in presence of [gamma33P]ATP by scintillation counting method relative to control.
Experiment [15] addresses Serine/threonine-protein kinase TAO1 (Homo sapiens) (UniProt Q7L7X3). In words: Inhibition of human TAO1 (1 to 327 residues) assessed as residual activity at 1 uM using myelin basic protein as substrate measured after 40 mins in presence of [gamma33P]ATP by scintillation counting method relative to control.
The target of experiment [16] is Serine/threonine-protein kinase TAO2 (Homo sapiens) (UniProt Q9UL54). In words: Inhibition of human TAO2 (1 to 320 residues) assessed as residual activity at 1 uM using myelin basic protein as substrate measured after 40 mins in presence of [gamma33P]ATP by scintillation counting method relative to control.
The target in experiment [17] is Serine/threonine-protein kinase ULK1 (Homo sapiens) (UniProt O75385). In words: Inhibition of human ULK1 (1 to 314 residues) assessed as residual activity at 1 uM using casein as substrate measured after 40 mins in presence of [gamma33P]ATP by scintillation counting method relative to control.

SMILES strings stand for the structures.

Chain of Serine/threonine-protein kinase TAO1 (Homo sapiens) (Q7L7X3 whole entry, the tested form may be a part): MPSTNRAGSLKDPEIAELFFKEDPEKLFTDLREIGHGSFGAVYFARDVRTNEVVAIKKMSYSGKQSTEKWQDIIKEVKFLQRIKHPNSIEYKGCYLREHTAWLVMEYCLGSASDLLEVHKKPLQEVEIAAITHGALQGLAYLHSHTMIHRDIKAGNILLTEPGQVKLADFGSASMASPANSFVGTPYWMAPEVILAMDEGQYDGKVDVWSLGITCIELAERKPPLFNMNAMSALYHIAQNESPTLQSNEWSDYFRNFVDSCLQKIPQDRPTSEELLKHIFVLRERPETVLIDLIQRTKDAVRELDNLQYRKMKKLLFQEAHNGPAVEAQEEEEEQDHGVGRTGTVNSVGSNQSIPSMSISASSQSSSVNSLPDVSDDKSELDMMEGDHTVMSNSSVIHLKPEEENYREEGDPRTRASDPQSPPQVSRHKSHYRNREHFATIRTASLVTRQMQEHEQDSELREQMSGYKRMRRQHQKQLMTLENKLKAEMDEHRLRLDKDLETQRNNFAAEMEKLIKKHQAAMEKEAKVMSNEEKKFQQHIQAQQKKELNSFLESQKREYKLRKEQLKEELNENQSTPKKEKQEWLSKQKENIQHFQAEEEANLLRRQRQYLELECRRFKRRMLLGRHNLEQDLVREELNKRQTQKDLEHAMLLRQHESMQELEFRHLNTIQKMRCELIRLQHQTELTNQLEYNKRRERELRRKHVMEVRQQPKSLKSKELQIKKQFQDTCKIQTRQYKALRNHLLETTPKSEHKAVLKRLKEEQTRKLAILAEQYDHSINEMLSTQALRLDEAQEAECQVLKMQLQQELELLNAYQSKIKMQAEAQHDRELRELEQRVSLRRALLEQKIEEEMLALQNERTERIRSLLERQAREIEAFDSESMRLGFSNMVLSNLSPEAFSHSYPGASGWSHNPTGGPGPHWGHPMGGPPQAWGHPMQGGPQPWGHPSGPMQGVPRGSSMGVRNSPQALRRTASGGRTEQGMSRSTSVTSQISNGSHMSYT
Chain of Ephrin type-A receptor 3 (Homo sapiens) (P29320 whole entry): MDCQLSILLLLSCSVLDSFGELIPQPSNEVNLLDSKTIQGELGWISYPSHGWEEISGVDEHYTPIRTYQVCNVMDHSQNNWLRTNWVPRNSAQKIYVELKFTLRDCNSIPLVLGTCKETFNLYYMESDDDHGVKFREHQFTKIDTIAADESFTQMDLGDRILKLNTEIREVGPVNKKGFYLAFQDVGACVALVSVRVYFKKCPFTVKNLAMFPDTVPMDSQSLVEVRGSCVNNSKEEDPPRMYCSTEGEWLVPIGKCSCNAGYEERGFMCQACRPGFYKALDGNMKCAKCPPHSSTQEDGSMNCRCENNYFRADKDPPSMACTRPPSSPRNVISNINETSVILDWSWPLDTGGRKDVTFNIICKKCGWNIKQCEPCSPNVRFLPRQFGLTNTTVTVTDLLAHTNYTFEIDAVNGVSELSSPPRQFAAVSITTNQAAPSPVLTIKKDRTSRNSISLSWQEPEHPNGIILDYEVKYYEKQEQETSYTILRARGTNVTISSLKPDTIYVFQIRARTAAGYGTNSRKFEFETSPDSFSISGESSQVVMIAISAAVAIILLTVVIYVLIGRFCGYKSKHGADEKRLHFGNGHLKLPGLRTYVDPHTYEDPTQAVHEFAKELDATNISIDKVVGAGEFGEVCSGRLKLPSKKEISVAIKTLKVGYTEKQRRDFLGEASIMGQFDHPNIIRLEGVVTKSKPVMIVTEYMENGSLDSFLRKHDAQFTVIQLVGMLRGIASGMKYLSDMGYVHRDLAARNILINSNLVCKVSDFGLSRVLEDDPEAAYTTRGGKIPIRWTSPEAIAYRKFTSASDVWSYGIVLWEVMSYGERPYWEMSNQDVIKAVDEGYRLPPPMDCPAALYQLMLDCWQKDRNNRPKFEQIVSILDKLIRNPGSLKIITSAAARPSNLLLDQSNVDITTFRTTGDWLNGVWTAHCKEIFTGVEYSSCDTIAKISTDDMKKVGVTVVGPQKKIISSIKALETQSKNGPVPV
Chain of Tyrosine-protein kinase JAK3 (Homo sapiens) (P52333 whole entry, the tested form may be a part): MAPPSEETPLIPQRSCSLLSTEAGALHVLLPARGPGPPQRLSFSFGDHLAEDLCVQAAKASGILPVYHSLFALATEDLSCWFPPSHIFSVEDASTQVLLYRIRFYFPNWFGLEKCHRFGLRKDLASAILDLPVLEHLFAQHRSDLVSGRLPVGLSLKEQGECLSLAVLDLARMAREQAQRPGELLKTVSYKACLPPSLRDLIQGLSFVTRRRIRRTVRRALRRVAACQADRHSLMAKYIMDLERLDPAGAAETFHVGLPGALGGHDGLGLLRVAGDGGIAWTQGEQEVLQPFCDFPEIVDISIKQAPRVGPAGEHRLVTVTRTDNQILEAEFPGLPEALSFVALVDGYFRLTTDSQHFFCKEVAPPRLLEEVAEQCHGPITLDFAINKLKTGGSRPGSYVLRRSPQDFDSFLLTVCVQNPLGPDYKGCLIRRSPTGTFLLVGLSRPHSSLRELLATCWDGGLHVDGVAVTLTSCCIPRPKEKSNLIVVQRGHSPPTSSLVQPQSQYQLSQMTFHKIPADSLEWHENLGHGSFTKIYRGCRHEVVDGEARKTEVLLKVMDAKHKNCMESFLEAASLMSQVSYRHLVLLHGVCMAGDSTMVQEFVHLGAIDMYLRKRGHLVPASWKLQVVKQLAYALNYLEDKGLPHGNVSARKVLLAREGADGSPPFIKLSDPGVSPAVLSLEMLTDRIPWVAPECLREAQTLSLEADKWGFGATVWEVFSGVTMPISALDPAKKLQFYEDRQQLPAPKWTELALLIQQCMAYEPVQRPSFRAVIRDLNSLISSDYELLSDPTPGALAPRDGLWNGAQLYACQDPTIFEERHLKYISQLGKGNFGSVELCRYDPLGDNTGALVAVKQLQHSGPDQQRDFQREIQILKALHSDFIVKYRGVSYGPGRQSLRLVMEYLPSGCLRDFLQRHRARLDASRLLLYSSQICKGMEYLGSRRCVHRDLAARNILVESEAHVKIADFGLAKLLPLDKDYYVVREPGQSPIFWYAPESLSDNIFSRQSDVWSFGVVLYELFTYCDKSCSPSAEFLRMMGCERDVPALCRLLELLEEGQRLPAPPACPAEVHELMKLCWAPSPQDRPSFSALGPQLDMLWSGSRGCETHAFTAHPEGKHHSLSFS

As for `N=C1NC(=O)/C(=C\c2ccc(-c3cccc([N+](=O)[O-])c3)o2)S1`, the Activity came out at 91% in experiment [1]; 42% in [2]; 93% in experiment [3]; 103% in [4]; 62% in experiment [5]; 101% in experiment [6]. Moreover, the Activity in [7] amounted to 111%; in experiment [8] it was 90%; in experiment [9] it was 102%; in experiment [10], 89%; in experiment [11] it was 107%; in experiment [12] it was 101%. For the same molecule, the Activity in experiment [13] stood at 82%; in [14], 97%; in experiment [15] it was 52%; in experiment [16], 79%; in experiment [17], 98%.
Regarding `C=CCOC(=O)c1cc(-c2ccc(/C=C3/NC(=S)NC3=O)o2)ccc1Cl`, the Activity in experiment [1] was found to be 99%; in [2], 71%; in experiment [3], 101%; in experiment [4] it was 90%; in experiment [5] it was 58%; in experiment [6] it was 90%. Further, the Activity in [7] came to 97%; in experiment [8], 108%; in [9], 104%; in experiment [10] it was 105%; in [11] it was 82%; in [12], 99%. In addition, the Activity stood at 100% in experiment [13]; 92% in experiment [14]; 82% in experiment [15]; 100% in experiment [16]; 98% in experiment [17].
